# From patent publication US10214507B2, “Carbazole-containing amides, carbamates, and ureas as cryptochrome modulators” (Reset Therapeutics, Inc., priority 2014, dated 2019)
# Where two headings read alike, the source gives them in different places.
# Key:
# [1] = test system: Dbp mRNA in whole blood of db/db mice; test: Dbp mRNA in whole blood of db/db mice after three daily doses; format: in vivo, mouse; settings: 100 mg/kg PO once daily 3 days, ZT7.5
# Protocol: For whole blood RNA studies, male db/db mice (9 weeks of age, The Jackson Laboratory, Bar Harbor, Me.) were used for the experiment with n=8 mice for each experimental group. […] On the final day at ZT7.5 (2:30 pm), animals were euthanized using CO2 asphyxiation, and the blood collected from the heart via cardiac puncture. The blood was placed in RNALater solution to 1.5 ml total volume. Total RNA was prepared using an Ambion Mouse RiboPure Blood RNA Isolation Kit AM1951 as follows. Samples were centrifuged for 3 minutes, discarding the supernatant. Two ml of lysis solution was added and vortexed, transferred to a 15 ml tube followed by the addition of […]. Lysis buffer was added to a total volume of 3.8 ml and vortexed. The sample mixture was extracted with 1.5 ml Acid Phenol: Chloroform and the aqueous phase was recovered. After adding 0.5 volumes of 100% ethanol and vortexing, the samples were passed through a filter column provided in the kit and washed with 750 microliters of wash buffer 1. The filter was washed with 2 passes of 750 microliters wash buffer ⅔ and dried. RNA was eluted in 200 microliters of molecular biology grade water (RNase-free).
# The levels of core clock gene mRNAs in whole blood may provide a non-invasive method of determining effects of compounds in treated subjects. […]
# [2] = test system: core clock and gluconeogenic gene mRNAs in liver of C57Bl/6J DIO mice; test: 24 hour gene expression study, liver mRNA by RT-qPCR, C57Bl/6J DIO mice; format: in vivo, mouse; settings: 50 mg/kg BID PO
# Description: Male C57Bl/6J DIO mice were purchased at 17 weeks of age (The Jackson Laboratory, Sacramento, Calif.) and acclimated for a 2 week period before being used for the experiment. Overall group size was 15 per treatment, divided into 5 time-points to give a final group size of 3 mice.
# In total, each mouse received 5 doses of compound over the course of the experiment. Mice were weighed and randomly assigned to each treatment based on weight the evening before the commencement of the study. Beginning on Day 3 at 3:00 PM, a group of animals from the vehicle and Compound 72-treated groups were euthanized using CO2 asphyxiation, 50 mg of liver, epididymal fat, and skeletal muscle, respectively, were excised and placed in tube containing 500 μl of RNALater. This procedure took place for the remainder of the time-point groups at their given harvest times. Plasma samples were also taken for each animal and frozen, to be used for later measurement of compound levels.
# E.Z.N.A.® HP Total RNA Isolation Kits (R6812-01 and the protocol described in the Manual, Revised 2010) were utilized to prepare and isolate RNA from the liver samples. To prepare the RNA samples, 10-30 mg of sample was removed from RNA-Later and placed in a 1.5 ml microfuge tube. GTC lysis buffer (700 μl) was added to the tissue, which was homogenized with a rotor-stator homogenizer (e.g. Tissue-Tearor, Model #985370 BioSpec Products with 4.5 mm probe, Cat. #985370-04), and then centrifuged at full speed (>13,000×g) for 5 minutes. The cleared supernatant was transferred by pipetting to a DNA Clearance Column Pre-inserted in a 2 mL Collection Tube. The assembled column was centrifuged at 13,000×g for 1 minute, and the flow-through was saved. An equal volume (700 μl) of 70% ethanol was added to the lysate and mixed. The sample was then applied to a HiBind RNA spin column placed into a 2 ml collection tube, which was centrifuged at 10,000×g for 60 seconds at room temperature. RNA Wash Buffer I (250 μl) was added by pipetting directly onto a new HiBind RNA column inserted in a 2 ml collection tube. The assembled column was centrifuged at 10,000×g for 60 seconds. The RNA column was placed into a new 2 ml collection tube. DNase I stock solution is pipetted (75 μl) directly onto the surface of the HiBind RNA resin in each column (Using DNAse Digestion with RNase Free DNase Set (E1091): for each HiBind RNA column, the DNase I stock solution was prepared as followed: E.Z.N.A.® DNase I Digestion Buffer 73.5μl, RNase Free DNase I (20 Kunitz/μl) 1.5 μl=Total Volume 75 μl.). The column with bound RNA was incubated at room temperature (25-30° C.) for 15 minutes. RNA Wash Buffer I (500 μl) was added to the column and placed on a bench top for 2 minutes. After centrifuging at 10,000×g for 60 seconds, discarding the flow-through, 500 μl of RNA Wash Buffer II was added and centrifuged at 10,000×g for 60 seconds. Another 500 μl of RNA Wash Buffer II was added and the column assembly was centrifuged at 10,000×g for 60 seconds. The column was centrifuged for 2 minutes at maximum speed to completely dry the HiBind matrix. The column was placed in a clean 1.5 ml microcentrifuge tube and 40-70 μl of molecular biology grade water is added. […]
# RediPlate 96 RiboGreen RNA Quantification Kit (Invitrogen) RediPlate standard curve was prepared by transferring 20 μl reconstituted RNA standard to a RediPlate well reconstituted in 180 μl RediPlate TE buffer. […]
# [3] = test system: db/db mouse model of type II diabetes; test: Increasing dosages of Compound 72 for 7 days in db/db mice; format: in vivo
# Description: (§1) Significance was accepted when p<0.05.
# [4] = as above; format: in vivo, mouse; settings: male, mouse, oral, around 8 hours after last dose
# Description: as §1
smiles,measurement,setting,value
"O=C1NCCN1CC(O)Cn1c2ccc(F)cc2c2cc(F)ccc21 (centres unmarked) [Compound 72, 1-(3-(3,6-difluoro-9H-carbazol-9-yl)-2-hydroxypropyl)imidazolidin-2-one]",Dbp gene expression in whole blood,[1],statistically significant suppression
same,Cry2 mRNA daytime peak in liver,[2],strongly attenuated
same,Bmal1 mRNA in liver,[2]; at ZT8 and 32 hours after original ZT0,substantially increased
same,Cry1 mRNA in liver,[2]; peak of expression in dark period,suppressed
same,Per2 mRNA in liver over 24 hours,[2]; vs vehicle,suppressed
same,circadian pattern of mRNAs for gluconeogenic genes Pck1 and G6Pc,"[2]; liver, relative to vehicle",substantially altered
same,HOMA-IR,[3]; 10 mg/kg QD PO 7 days,172.7+/−16.61 units
same,fasting blood glucose,[3]; 10 mg/kg QD PO 7 days,503.5 ± 49.68 mg/dL
same,glucose AUC from OGTT,[3]; 10 mg/kg QD PO 7 days,39771+/−4244
same,HOMA-IR,[3]; 50 mg/kg QD PO 7 days,149.2+/−16.49 units
same,fasting blood glucose,[3]; 50 mg/kg QD PO 7 days,402.8 ± 25.25 mg/dL
same,glucose AUC from OGTT,[3]; 50 mg/kg QD PO 7 days,35527+/−3215
same,HOMA-IR,[3]; 100 mg/kg QD PO 7 days,111.9+/−9.02 units
same,fasting blood glucose,[3]; 100 mg/kg QD PO 7 days,420.7 ± 26.44 mg/dL
same,glucose AUC from OGTT,[3]; 100 mg/kg QD PO 7 days,28499+/−3079
same,plasma insulin at t=0,[3]; 100 mg/kg QD PO 7 days,4.63 ± 0.17 ng/mL
same,reduction of HOMA-IR compared to vehicle control,[3]; 100 mg/kg QD PO 7 days,34%
same,concentration at 8 h,"[4]; liver, 10 mg/kg, read-out: compound level in liver",120 nM
same,concentration at 8 h,"[4]; liver, 50 mg/kg, read-out: compound level in liver",780 nM
same,concentration at 8 h,"[4]; liver, 100 mg/kg, read-out: compound level in liver",1810 nM
same,concentration at 8 h,"[4]; plasma, 10 mg/kg, read-out: compound level in plasma",90 nM
same,concentration at 8 h,"[4]; plasma, 50 mg/kg, read-out: compound level in plasma",570 nM
same,concentration at 8 h,"[4]; plasma, 100 mg/kg, read-out: compound level in plasma",1220 nM
